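Compound exposure: 48 hours, 5 concentrations, 96-well plates. Here, GI50 denotes the concentration required for 50% inhibition of growth.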 The source made the active and inactive calls. No stated cut-off is given here; in the data, active = GI50 up to about 1.1 µM and inactive = higher.

Results on twelve compounds are retold here after ChEMBL document CHEMBL1201862, “PubChem BioAssay data set” (2004).

Test systems include 786-0; A549; ACHN; CCRF-CEM; HCT-15; K562; LOX IMVI; M14; Malme-3M; NCI-H522; SK-MEL-28; SN12C; SNB-78; SW-620; U-251; MOLT-4; SNB-75; SR; MDA-MB-435; MDA-N.
Holding throughout (test): NCI anticancer screen, dose series, 48 h

Consider `COc1ccc(/C=C2/C(=O)N(C(=O)c3ccc(Cl)cc3)N=C2C)cc1OC`, for which the GI50 is > 100 µM (inactive) in the assay on 786-0; > 100 µM (inactive) with A549; > 100 µM (inactive) in the assay on ACHN; > 100 µM (inactive) in the assay with CCRF-CEM; > 100 µM with HCT-15; > 100 µM (inactive) in the assay on K562. Further, the GI50 with LOX IMVI, in the assay on M14, in the assay on Malme-3M, in the assay with NCI-H522, with SK-MEL-28 and in the assay with SN12C was > 100 µM (inactive) each time. Further, the GI50 with SNB-78, in the assay on SW-620 and in the assay with U-251 was > 100 µM (inactive) throughout.
Regarding `Cc1ccc(C(=O)/C=C/c2ccccc2O)c(C)c1`, the GI50 with 786-0 is > 100 µM (inactive); with A549, > 100 µM (inactive); with ACHN, > 100 µM (inactive); in the assay with CCRF-CEM it was 30.1 µM (inactive); in the assay on HCT-15, > 100 µM; in the assay on K562 it was > 100 µM (inactive). In addition, the GI50 is > 100 µM (inactive) with LOX IMVI; > 100 µM (inactive) in the assay with M14; 94.8 µM (inactive) in the assay with MOLT-4; > 100 µM (inactive) with Malme-3M; > 100 µM (inactive) with NCI-H522; > 100 µM (inactive) in the assay on SK-MEL-28. Besides, the GI50 in the assay with SN12C was > 100 µM (inactive); with SNB-75, 1.24 µM (inactive); with SNB-78, > 100 µM (inactive); with SW-620, > 100 µM (inactive); in the assay on U-251, > 100 µM (inactive).
Regarding `COc1ccccc1/C=N/N=C(\N)NO`, the GI50 in the assay with 786-0 was 23 µM (inactive); in the assay with A549 it was 4.76 µM (inactive); in the assay with ACHN, 8.22 µM (inactive); in the assay with CCRF-CEM it was 16.7 µM (inactive); with HCT-15 it was 6.32 µM; with K562, 3.65 µM (inactive). Besides, the GI50 with LOX IMVI was 4.47 µM (inactive); in the assay with MOLT-4, 12.6 µM (inactive); in the assay with Malme-3M it was 30 µM (inactive); in the assay with NCI-H522, 18.7 µM (inactive); in the assay on SK-MEL-28 it was 21.3 µM (inactive); in the assay on SN12C, 30.2 µM (inactive). In addition, the GI50 was > 100 µM (inactive) in the assay with SNB-78, 31.8 µM (inactive) with SR, 21.3 µM (inactive) in the assay with SW-620 and 48.3 µM (inactive) in the assay with U-251.
As for `Cc1ccc(S(=O)(=O)OC2CC=CC2)cc1`, the GI50 in the assay with 786-0 is > 100 µM (inactive); with A549 it was > 100 µM (inactive); in the assay on ACHN it was > 100 µM (inactive); with CCRF-CEM, > 100 µM (inactive); with HCT-15, > 100 µM; in the assay on K562, > 100 µM (inactive). Further, the GI50 in the assay on LOX IMVI, in the assay with M14, with MOLT-4, with Malme-3M, in the assay with SK-MEL-28 and with SN12C was > 100 µM (inactive) in each case. In addition, the GI50 in the assay on SNB-75, in the assay with SNB-78, in the assay with SW-620 and in the assay with U-251 was > 100 µM (inactive) throughout.
Take `CC(C)c1cc2c(O)c(c1)Cc1cc(C(C)C)cc(c1O)Cc1cc(C(C)C)cc(c1O)Cc1cc(C(C)C)cc(c1O)C2`: the GI50 in the assay with 786-0 was > 100 µM (inactive); in the assay with A549, > 100 µM (inactive); in the assay on CCRF-CEM, > 100 µM (inactive); in the assay with HCT-15 it was > 100 µM; in the assay with K562, > 100 µM (inactive); in the assay with LOX IMVI, > 100 µM (inactive). Moreover, the GI50 with MOLT-4, in the assay on Malme-3M, with NCI-H522, in the assay with SNB-75, with SNB-78 and in the assay with SR was > 100 µM (inactive) each time. The GI50 with SW-620 and in the assay with U-251 was > 100 µM (inactive) each time.
For the compound `COc1cc2oc(-c3ccc(O)cc3)c(OC3OC(C)C(O)C(O)C3O)c(=O)c2c(O)c1OC` (configuration not stated), the GI50 in the assay on 786-0 was 51.2 µM (inactive); in the assay with A549, 79.6 µM (inactive); in the assay on ACHN it was 90.8 µM (inactive); with CCRF-CEM, 35.6 µM (inactive); in the assay on HCT-15, > 100 µM; in the assay with K562 it was 54.3 µM (inactive). For the same compound, the GI50 was 57.7 µM (inactive) in the assay on LOX IMVI; > 100 µM (inactive) in the assay on M14; > 100 µM (inactive) in the assay with MDA-MB-435; > 100 µM (inactive) with MDA-N; 33 µM (inactive) with MOLT-4; 96.2 µM (inactive) in the assay with Malme-3M. Moreover, the GI50 was 37 µM (inactive) with NCI-H522; > 100 µM (inactive) in the assay on SK-MEL-28; > 100 µM (inactive) in the assay with SN12C; > 100 µM (inactive) in the assay with SNB-75; 27 µM (inactive) with SR; 92.7 µM (inactive) with SW-620. For the same compound, the GI50 with U-251 was 89.5 µM (inactive).
Consider `COc1cc(C2C(C(=O)O)=C(C)Oc3cc4c(cc32)OCO4)cc(OC)c1OC` (configuration not stated), for which the GI50 was 37.2 µM (inactive) with 786-0; 45 µM (inactive) in the assay on A549; 45.2 µM (inactive) in the assay on ACHN; 29.9 µM (inactive) in the assay on CCRF-CEM; 18.5 µM in the assay with HCT-15; 19.9 µM (inactive) with K562. In addition, the GI50 in the assay with LOX IMVI was 41.3 µM (inactive); in the assay on M14 it was 59 µM (inactive); with MOLT-4, 21.3 µM (inactive); in the assay with Malme-3M it was 32.1 µM (inactive); in the assay with SK-MEL-28 it was 26.4 µM (inactive); with SN12C it was 38.2 µM (inactive). Also, the GI50 with SNB-75 is 14.6 µM (inactive); in the assay with SNB-78, 50.4 µM (inactive); in the assay on SW-620 it was 33.7 µM (inactive); in the assay with U-251, 36.6 µM (inactive).
As to `CC(O)CN1C(=O)NC(Cc2ccccc2)C1=O` (configuration not stated), the GI50 in the assay with 786-0, in the assay with A549, with ACHN, in the assay on LOX IMVI, in the assay on M14 and with NCI-H522 was > 100 µM (inactive) each time. The GI50 in the assay with SK-MEL-28, in the assay with SN12C, in the assay with SNB-75, with SNB-78, with SR and in the assay with SW-620 was > 100 µM (inactive) in each case. In the assay with U-251, the GI50 was > 100 µM (inactive).
For `Cc1cc2c(c(C(N)=O)c1C)-c1ccccc1C2=O`, the GI50 with 786-0 was > 100 µM (inactive); in the assay with A549, > 100 µM (inactive); in the assay on ACHN it was > 100 µM (inactive); with CCRF-CEM, > 100 µM (inactive); in the assay with HCT-15, > 100 µM; in the assay with K562 it was > 100 µM (inactive). For the same compound, the GI50 in the assay on LOX IMVI, in the assay on M14, in the assay with MOLT-4, in the assay on Malme-3M, with NCI-H522 and in the assay with SK-MEL-28 was > 100 µM (inactive) each time. The GI50 in the assay with SN12C is > 100 µM (inactive); with SNB-75 it was 83.2 µM (inactive); in the assay with SNB-78, > 100 µM (inactive); in the assay on SW-620, > 100 µM (inactive); in the assay on U-251, > 100 µM (inactive).
Turning to `COc1ccccc1N1C(=O)/C(=C/c2ccc(N(CCC#N)CCC#N)cc2C)N=C1c1cc([N+](=O)[O-])ccc1Cl`, the GI50 in the assay on 786-0 was > 100 µM (inactive); in the assay on A549, > 100 µM (inactive); in the assay with ACHN, > 100 µM (inactive); in the assay on CCRF-CEM it was > 100 µM (inactive); in the assay with HCT-15 it was > 100 µM; in the assay with K562, > 100 µM (inactive). Further, the GI50 with M14 was 68.2 µM (inactive); in the assay with MOLT-4, > 100 µM (inactive); in the assay on Malme-3M, > 100 µM (inactive); in the assay on NCI-H522, > 100 µM (inactive); in the assay on SK-MEL-28, > 100 µM (inactive); with SN12C, > 100 µM (inactive). Also, the GI50 in the assay with SNB-75, in the assay on SNB-78, in the assay with SR and in the assay with U-251 was > 100 µM (inactive) in each case.
For the compound `CC(=O)NC1=C(C)C(=O)c2c(nc3n2CCC3OC(=O)c2ccccc2)C1=N` (configuration not stated), the GI50 in the assay on 786-0 is 1.93 µM (inactive); in the assay on A549, 3.18 µM (inactive); in the assay with ACHN, 1.71 µM (inactive); with CCRF-CEM, 1.58 µM (inactive); in the assay with HCT-15, 2.72 µM; in the assay on K562, 1.79 µM (inactive). Further, the GI50 in the assay on LOX IMVI is 0.406 µM (active); in the assay on M14, 1.01 µM (active); with MDA-MB-435, 0.166 µM (active); with MDA-N, 0.182 µM (active); with MOLT-4, 1.84 µM (inactive); in the assay on Malme-3M it was 1.13 µM (inactive). In addition, the GI50 in the assay with NCI-H522 was 3.83 µM (inactive); in the assay with SK-MEL-28, 1.8 µM (inactive); with SN12C, 1.72 µM (inactive); in the assay on SNB-75 it was 2.37 µM (inactive); in the assay on SR it was 2.29 µM (inactive); in the assay with SW-620, 1.63 µM (inactive). In addition, the GI50 in the assay with U-251 was 3.22 µM (inactive).
Take `CC(=O)Oc1ccc(C(c2ccc(OC(C)=O)cc2)c2ccccn2)cc1` [BISACODYL]: the GI50 in the assay with 786-0 is > 91.6 µM (inactive); with A549, 91.4 µM (inactive); in the assay with ACHN it was 78.7 µM (inactive); with CCRF-CEM, 71.1 µM (inactive); in the assay on HCT-15, 39.7 µM; with K562, 59.4 µM (inactive). The GI50 in the assay with LOX IMVI was 29.2 µM (inactive); in the assay on M14, > 93.5 µM (inactive); in the assay with MDA-MB-435, 76.4 µM (inactive); with MDA-N, > 87.9 µM (inactive); with MOLT-4, 57 µM (inactive); in the assay on Malme-3M, 78.5 µM (inactive). Moreover, the GI50 is 76.7 µM (inactive) in the assay on NCI-H522; > 100 µM (inactive) in the assay on SK-MEL-28; 7.16 µM (inactive) in the assay with SN12C; 28.5 µM (inactive) with SNB-75; 64.4 µM (inactive) in the assay with SR; > 100 µM (inactive) in the assay on SW-620. The GI50 with U-251 is > 97.5 µM (inactive).
